Tests used:
[1] = system: subcutaneous transplanted tumor, prostate cancer (22RV1); test: Uptake of 177Lu labeled complex in subcutaneous transplanted tumor model mice with prostate cancer (tumor uptake and tissue distribution); type: in vivo; conditions: 24 h after intravenous tail injection of 5 MBq; 22RV1 tumor model mice; FIG. 1
Description: The compound in Example 31 or another prior radioactive probe targeting PSMA was injected into subcutaneous transplanted tumor model mice with prostate cancer, and uptake results in tumors and distribution results in tissues were compared. A specific plan is as follows.
The subcutaneous transplanted tumor model mice with prostate cancer (22RV1) were randomly divided into 3 groups including an experimental group, a control group A and a control group B with 3 mice in each group.
[…] complex with purity of greater than 95% was prepared according to the method in Example 31. The complex is obtained by labeling compound 10 in Example 1 with ^177Lu, which was used as medicine B for the experimental group in the experiment. […]
5 MBq of medicine B, the medicine A and the medicine C were intravenously injected into tails of the mice in the experimental group, the control group A and the control group B, respectively. […] The obtained tissues were weighed, and measured by a y counter to obtain the radioactive counting of samples in the experimental group, the control group A and the control group B. Measured data were subtracted from the background, the decay time was corrected, and then average values were obtained. The data was expressed as the percentage of injected dose per gram tissue (% ID/g) of the dose uptake in tissues per gram in the injected dose.

PSMA positive lesions = conditions: human, in vivo; cited from earlier work

O=C([O-])CN1CCN(CC(=O)[O-])CCN(CC(=O)NCC2CCC(C(=O)N[C@@H](Cc3ccc4ccccc4c3)C(=O)NCCCC[C@H](NC(=O)N[C@@H](CCC(=O)O)C(=O)O)C(=O)O)CC2)CCN(CC(=O)[O-])CC1.[177Lu+3] (some centres unmarked) [^177Lu-PSMA 617]
uptake in tumors [1]: 7.60±1.22 % ID/g
patients with no response to therapy (PSMA positive lesions): About 30%
